Several values for one entry are separate records, joined by “and”; a condition that tells them apart may be missing. Identical values can stand only once.
Tested on: 323965-272-R-J2-PDC complex spheroid viability
Assay: Anticancer human tumor 323965-272-R-J2-PDC patient-derived pancreatic carcinoma cell line growth inhibition [CLK]
Conditions: for viability, T/C: stronger effect = lower value
Summary of the method: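 Patient-derived tumor cells grown as complex spheroids with HUVEC endothelial cells and mesenchymal stem cells, treated with drug combinations. Concentrations descend in half-log steps from near clinical Cmax, or from 10 microM if Cmax unknown.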
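Further: spheroids exposed to agents for seven days before readout.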
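Wherever viability, T/C is given: percent of DMSO vehicle control wells so 100% = untreated growth.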

`COC1C=CCC(C)C(C)S(=O)(=O)NC(=O)c2ccc3c(c2)N(CC2CCC21)CC1(CCCc2cc(Cl)ccc21)CO3` (centres undefined) was tested, and the viability, T/C (compound 0.0316 µM) was 111% and 91.1%, the viability, T/C (compound 0.1 µM) was 108% and 91.9% and the viability, T/C (compound 0.316 µM) was 77.9% and 80.8%. The viability, T/C (compound 1 µM) was 61.1% and 61.5%, the viability, T/C (compound 3.16 µM) was 37.5% and 61% and the viability, T/C (compound 10 µM) was 10.5% and 25.6%. For the same molecule, the IC50 (curve of compound) was 1.64 µM and 3.65 µM.
For `CC(=O)O[C@H]1C(=O)[C@@]2(C)[C@H]([C@H](OC(=O)c3ccccc3)[C@]3(O)C[C@H](OC(=O)[C@H](O)[C@@H](NC(=O)c4ccccc4)c4ccccc4)C(C)=C1C3(C)C)[C@]1(OC(C)=O)CO[C@@H]1C[C@@H]2O` + CNC(=O)c1ccc(Nc2nc(OC3CCCC3)c3c(-c4ccc5nc(C)oc5c4)c[nH]c3n2)c(OC)c1, the IC50 (curve of first compound, second compound 0.0316 µM) was under 0.0316 µM, the IC50 (curve of first compound, second compound 0.1 µM) was under 0.0316 µM and the IC50 (curve of first compound, second compound 0.316 µM) was over 10 µM. The IC50 (curve of first compound, second compound 1 µM) was over 10 µM, the IC50 (curve of first compound, second compound 3.16 µM) was under 0.0316 µM and the IC50 (curve of first compound, second compound 10 µM) was under 0.0316 µM. It also gave a viability, T/C (second compound 0.0316 µM, first compound 0.0316 µM) of 32.8%, a viability, T/C (second compound 0.0316 µM, first compound 0.1 µM) of 40.5% and a viability, T/C (second compound 0.0316 µM, first compound 0.316 µM) of 34.4%. It also gave a viability, T/C (second compound 0.0316 µM, first compound 1 µM) of 33.2%, a viability, T/C (second compound 0.0316 µM, first compound 3.16 µM) of 33.1% and a viability, T/C (second compound 0.0316 µM, first compound 10 µM) of 36.9%. The viability, T/C (second compound 0.1 µM, first compound 0.0316 µM) was 45.3%, the viability, T/C (second compound 0.1 µM, first compound 0.1 µM) was 42.7% and the viability, T/C (second compound 0.1 µM, first compound 0.316 µM) was 41.9%. For the same molecule, the viability, T/C (second compound 0.1 µM, first compound 1 µM) was 37.9%, the viability, T/C (second compound 0.1 µM, first compound 3.16 µM) was 38.5% and the viability, T/C (second compound 0.1 µM, first compound 10 µM) was 38.5%. The viability, T/C (second compound 0.316 µM, first compound 0.0316 µM) was 66.5%, the viability, T/C (second compound 0.316 µM, first compound 0.1 µM) was 68.7% and the viability, T/C (second compound 0.316 µM, first compound 0.316 µM) was 62.7%. For the same molecule, the viability, T/C (second compound 0.316 µM, first compound 1 µM) was 67.7%, the viability, T/C (second compound 0.316 µM, first compound 3.16 µM) was 68.5% and the viability, T/C (second compound 0.316 µM, first compound 10 µM) was 76.1%. The viability, T/C (second compound 1 µM, first compound 0.0316 µM) was 55.4%, the viability, T/C (second compound 1 µM, first compound 0.1 µM) was 60.1% and the viability, T/C (second compound 1 µM, first compound 0.316 µM) was 67.5%. It also gave a viability, T/C (second compound 1 µM, first compound 1 µM) of 63.2%, a viability, T/C (second compound 1 µM, first compound 3.16 µM) of 75.8% and a viability, T/C (second compound 1 µM, first compound 10 µM) of 74.5%. For the same molecule, the viability, T/C (second compound 3.16 µM, first compound 0.0316 µM) was 48.6%, the viability, T/C (second compound 3.16 µM, first compound 0.1 µM) was 53.5% and the viability, T/C (second compound 3.16 µM, first compound 0.316 µM) was 49.8%. It also gave a viability, T/C (second compound 3.16 µM, first compound 1 µM) of 56.1%, a viability, T/C (second compound 3.16 µM, first compound 3.16 µM) of 65.3% and a viability, T/C (second compound 3.16 µM, first compound 10 µM) of 60.4%. It also gave a viability, T/C (second compound 10 µM, first compound 0.0316 µM) of 44.6%, a viability, T/C (second compound 10 µM, first compound 0.1 µM) of 49% and a viability, T/C (second compound 10 µM, first compound 0.316 µM) of 49.2%. The viability, T/C (second compound 10 µM, first compound 1 µM) was 55.8%, the viability, T/C (second compound 10 µM, first compound 3.16 µM) was 68.7% and the viability, T/C (second compound 10 µM, first compound 10 µM) was 60.4%.
